# Source: patent US10987359B2, “Oxadiazepinone derivatives and methods of treating hepatitis B infections” (priority 2016, dated 2021)
# Tested on: HBV
# Test: HBV replication inhibition assay (BDNA assay) in HepG2.2.15 cells
# Format: cell-based
# Settings: Hepatitis B virus, HepG2.2.15, HBV replication assay (BDNA assay), HepG2.2.15 cells; read-out: DNA EC50
# Procedure, shortened: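 HepG2.2.15 cells with stably integrated HBV were treated with serially diluted compounds at 0.5% DMSO for 6 days, with medium and compound refreshed at day 3. Encapsidated HBV DNA from DNase-treated supernatant was quantified by branched DNA assay. EC50 came from % inhibition versus DMSO, fitted non-linearly.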
row,SMILES,EC50 [nM]
1,"CN1OC(CO)Cn2nc3c(c2C1=O)CN(C(=O)Nc1cccc(Cl)c1)CC3(C)C (stereo not shown) [Compound 046, N-(3-chlorophenyl)-4-(hydroxymethyl)-2,8,8-trimethyl-1-oxo-1,4,5,8,9,11-hexahydropyrido[4′,3′:3,4]pyrazolo[5,1-d][1,2,5]oxadiazepine-10(2H)-carboxamide]",100 to 500
2,"CC1CN(C(=O)Nc2cccc(Cl)c2)Cc2c1nn1c2C(=O)N(C)OC(CO)C1 (stereo not shown) [Compound 047, N-(3-chlorophenyl)-4-(hydroxymethyl)-2,8-dimethyl-1-oxo-1,4,5,8,9,11-hexahydropyrido[4′,3′:3,4]pyrazolo[5,1-d][1,2,5]oxadiazepine-10(2H)-carboxamide]",100 to 500
3,"CSCC1Cn2nc3c(c2C(=O)N(C)O1)CN(C(=O)Nc1ccc(F)c(Cl)c1)CC3 (stereo not shown) [Compound 048, N-(3-chloro-4-fluoro-phenyl)-2-methyl-4-(methylsulfanylmethyl)-1-oxo-5,8,9,11-tetrahydro-4H-pyrido[2,3]pyrazolo[2,4-d][1,2,5]oxadiazepine-10-carboxamide]",1 to 100
4,"CN1OC(CS(C)(=O)=O)Cn2nc3c(c2C1=O)CN(C(=O)Nc1ccc(F)c(Cl)c1)CC3 (stereo not shown) [Compound 050, N-(3-chloro-4-fluorophenyl)-2-methyl-4-((methylsulfonyl)methyl)-1-oxo-1,4,5,8,9,11-hexahydropyrido[4′,3′:3,4]pyrazolo[5,1-d][1,2,5]oxadiazepine-10(2H)-carboxamide]",1 to 100
5,"COC(=O)OCC1Cn2nc3c(c2C(=O)N(C)O1)CN(C(=O)Nc1ccc(F)c(Cl)c1)CC3 (stereo not shown) [Compound 051, (10-((3-chloro-4-fluorophenyl)carbamoyl)-2-methyl-1-oxo-1,2,4,5,8,9,10,11-octahydropyrido[4′,3′:3,4]pyrazolo[5,1-d][1,2,5]oxadiazepin-4-yl)methyl methyl carbonate]",1 to 100
6,"CC(=O)OCC1Cn2nc3c(c2C(=O)N(C)O1)CN(C(=O)Nc1ccc(F)c(Cl)c1)CC3 (stereo not shown) [Compound 052, (10-((3-chloro-4-fluorophenyl)carbamoyl)-2-methyl-1-oxo-1,2,4,5,8,9,10,11-octahydropyrido[4′,3′:3,4]pyrazolo[5,1-d][1,2,5]oxadiazepin-4-yl)methyl acetate]",1 to 100
7,"CC(C)OC(=O)OCC1Cn2nc3c(c2C(=O)N(C)O1)CN(C(=O)Nc1ccc(F)c(Cl)c1)CC3 (stereo not shown) [Compound 053, (10-((3-chloro-4-fluorophenyl)carbamoyl)-2-methyl-1-oxo-1,2,4,5,8,9,10,11-octahydropyrido[4′,3′:3,4]pyrazolo[5,1-d][1,2,5]oxadiazepin-4-yl)methyl isopropyl carbonate]",1 to 100
8,"CN1OC(COC(=O)OC(C)(C)C)Cn2nc3c(c2C1=O)CN(C(=O)Nc1ccc(F)c(Cl)c1)CC3 (stereo not shown) [Compound 054, tert-butyl ((10-((3-chloro-4-fluorophenyl)carbamoyl)-2-methyl-1-oxo-1,2,4,5,8,9,10,11-octahydropyrido[4′,3′:3,4]pyrazolo[5,1-d][1,2,5]oxadiazepin-4-yl)methyl) carbonate]",1 to 100
9,"CN1OC(COC(=O)C(C)(C)C)Cn2nc3c(c2C1=O)CN(C(=O)Nc1ccc(F)c(Cl)c1)CC3 (stereo not shown) [Compound 055, (10-((3-chloro-4-fluorophenyl)carbamoyl)-2-methyl-1-oxo-1,2,4,5,8,9,10,11-octahydropyrido[4′,3′:3,4]pyrazolo[5,1-d][1,2,5]oxadiazepin-4-yl)methyl pivalate]",1 to 100
10,"CCOC(=O)OCC1Cn2nc3c(c2C(=O)N(C)O1)CN(C(=O)Nc1ccc(F)c(Cl)c1)CC3 (stereo not shown) [Compound 056, (10-((3-chloro-4-fluorophenyl)carbamoyl)-2-methyl-1-oxo-1,2,4,5,8,9,10,11-octahydropyrido[4′,3′:3,4]pyrazolo[5,1-d][1,2,5]oxadiazepin-4-yl)methyl ethyl carbonate]",1 to 100
